Experiments:
Trypanosoma brucei = experiment: Antitrypanosomal activity against bloodstream Trypanosoma brucei P2 by Alamar blue assay; assay type: functional, organism-based
Plasmodium falciparum = experiment: Antiplasmodial activity against Plasmodium falciparum; assay type: functional, organism-based
[1] = Cytotoxicity against HEK cells; assay type: cell-based; conditions: Homo sapiens, HEK293
[2] = Lipophilicity, log P of the compound; assay type: physicochemical; conditions: octanol/water

EC50 (Trypanosoma brucei) [µM] | EC50 (Plasmodium falciparum) [µM] | logP [2] | SMILES | EC50 [1] [µM]
1.3 | < 1.5 |  | c1ccc2c(c1)ccc1ccc(C3CNCCNCCNCCN3)cc12 (stereo unspecified) | 24.9
22 | > 100 | -1.44 | N=C(N)c1ccc(C2CNCCNCCNCCN2)cc1 (stereo unspecified) | > 200
> 200 | > 100 | -1.12 | NCc1ccc(C2CNCCNCCNCCN2)cc1 (stereo unspecified) | > 200

More lines, now with the values behind:

SMILES | EC50 (Trypanosoma brucei) [µM] | EC50 (Plasmodium falciparum) [µM] | logP [2] | EC50 [1] [µM]
N=C(N)NCc1ccc(C2CNCCNCCNCCN2)cc1 (stereo unspecified) | 41.2 | > 100 | -1.64 | > 200
O=C(Nc1ccc([N+](=O)[O-])cc1)OCCN1CCN(CCOC(=O)Nc2ccc([N+](=O)[O-])cc2)CCN(CCOC(=O)Nc2ccc([N+](=O)[O-])cc2)CCN(CCOC(=O)Nc2ccc([N+](=O)[O-])cc2)CC1 | 0.5 |  |  | 1.3
N#Cc1ccc(C2CNCCNCCNCCN2)cc1 (stereo unspecified) | > 200 | > 100 | -0.65 | > 200
